This note sets out measurements from PubChem BioAssay AID1996.

Structures are written as SMILES. ≈ marks a conversion by molar mass, not a printed value.

The conditions of this data set: buffer; pH 7.4; 200.0 µM.
The compound `CCOc1ccc(C(=O)O/N=C(\N)c2ccccn2)cc1OCC` came in with a solubility (kinetic) of 21.4 µg/mL (≈ 65 µM). On to `O=C(/C=C/c1ccc2c(c1)OCO2)NCc1ccncc1`, for which the solubility (kinetic) turned out to be 42.1 µg/mL (≈ 149 µM). The compound `Cc1ccc(-c2[nH]c(=S)[nH]c(=O)c2C#N)cc1` showed a kinetic solubility of 30.8 µg/mL (≈ 127 µM). The same measure for `NCCCn1cnc2ccccc21`: greater than 26.3 µg/mL.

`O=C(CCl)Nc1c[nH]c(=O)[nH]c1=O` displayed a solubility (kinetic) greater than 30.5 µg/mL. In the case of `COc1ccccc1CCC(=O)Nc1nccs1`, the solubility (kinetic) was 8.6 µg/mL (≈ 32.8 µM). Compound `O=C(CN1C(=O)NC2(CCc3ccccc32)C1=O)c1ccc(Br)cc1` (configuration not stated) had a solubility (kinetic) of 4.4 µg/mL (≈ 11 µM).

Compound `Cc1ccc(N2C(=O)NC(=O)/C(=C\C=C\c3ccco3)C2=O)cc1` returned a solubility (kinetic) of 8.8 µg/mL (≈ 27.3 µM). `Cc1ccc(CNc2cccnc2)cc1` had a kinetic solubility greater than 29.7 µg/mL.

On to `Nc1ccc(NC(=O)c2cccs2)cc1`, for which the kinetic solubility is greater than 32.7 µg/mL. `Cc1cc(C)nc(Nc2cccc3ccccc23)n1`: the solubility (kinetic) was 18.7 µg/mL (≈ 75 µM). The value for `CC(=O)Nc1ccc(/C=N/N2C(C)CCCC2C)cc1` (configuration not stated) was greater than 41 µg/mL. `O=C(COC(=O)c1cccnc1Cl)NC1CCCCC1` displayed a solubility (kinetic) greater than 44.5 µg/mL. Turning to `O=C(O)COc1ccccc1-c1nc(-c2ccccc2)c(-c2ccccc2)[nH]1`, the kinetic solubility was found to be 46.1 µg/mL (≈ 124 µM). Compound `Cc1ccc(S(=O)(=O)N2CCC(C(N)=O)CC2)cc1[N+](=O)[O-]` displayed a solubility (kinetic) greater than 49.1 µg/mL. In the case of `Cc1ccnc(N2CCCC(C(=O)Nc3ccc(C)c(C)c3)C2)n1` (configuration not stated), the kinetic solubility is 1.4 µg/mL (≈ 4.32 µM). With `O=C(NC1CCCC1)c1ccccc1OCc1ccccc1`, the kinetic solubility was 15 µg/mL (≈ 50.8 µM). This solubility kinetic is about 11-fold higher than that of the compound before. In the case of `CC(C)Cc1ccc(C(=O)NCCOc2ccccc2)o1`, the kinetic solubility came out at 29.2 µg/mL (≈ 102 µM). Turning to `COc1ccc(C(=O)NCCNC(=O)c2cnccn2)cc1OC`, the solubility (kinetic) was greater than 49.6 µg/mL. The same measure for `OCC(O)CN(c1ccccc1)c1ccccc1` (configuration not stated): greater than 36.5 µg/mL. `COc1cc(NC(=O)c2cccnc2SC)cc(OC)c1` gave a kinetic solubility greater than 45.7 µg/mL. On to `CCCC/C(O)=C1\C(=O)CC(C)(C)CC1=NCCCCCC(=O)O`, for which the solubility (kinetic) was greater than 50.6 µg/mL. For `Cc1c(C)n2c3c(cccc13)CC2`, the kinetic solubility amounted to 0.4 µg/mL (≈ 2.34 µM). Take `COc1ccc(-c2nc(-c3ccncc3)no2)c(OC)c1`: the solubility (kinetic) was 6 µg/mL (≈ 21.2 µM). Regarding `O=C(CN1CCc2ccccc21)NC(=O)NC1CCCCC1`, the kinetic solubility came out at 34.8 µg/mL (≈ 115 µM). This solubility kinetic lies about 5.8-fold higher than the previous one. Compound `O=C(NCC(=O)N1CCOCC1)OCc1ccccc1` registered a kinetic solubility greater than 41.7 µg/mL.

Compound `O=C(Nc1ccc(Nc2ccccc2)cc1)Nc1ccccc1Cl` showed a solubility (kinetic) of less than 0.2 µg/mL. In turn, `CCN(CC)c1ccc(NC(=O)c2ccc3c(c2)OCO3)cc1` returned a kinetic solubility of 6.4 µg/mL (≈ 20.5 µM). `COc1ccc(CN(C)C(=O)Cc2ccsc2)c(OC)c1OC` registered a kinetic solubility of 35.2 µg/mL (≈ 105 µM).

`COc1cccc(N2CCN(C(=S)Nc3ccccc3)CC2)c1` had a kinetic solubility of 2.9 µg/mL (≈ 8.86 µM). For `O=C(NC(=S)Nc1cccc(Cl)c1Cl)C1CC1`, the solubility (kinetic) stood at 0.8 µg/mL (≈ 2.77 µM). `Fc1ccc(NC(=S)NCCN2CCOCC2)c(F)c1F` had a kinetic solubility greater than 47.9 µg/mL.

As for `Nc1[nH]c(=O)nc(Nc2ccccc2)c1N=O`, the solubility (kinetic) is greater than 34.7 µg/mL. Compound `N#Cc1cccnc1N1CCN(C(=O)c2cccs2)CC1` displayed a solubility (kinetic) greater than 44.8 µg/mL. Compound `CCOC(=O)/C=C/C(=O)Nc1ccc(Oc2ccccc2)cc1` showed a solubility (kinetic) of 3.8 µg/mL (≈ 12.2 µM). As for `COc1ccc(C2SCC(=O)N2c2ccc(F)cc2)cc1` (configuration not stated), the solubility (kinetic) is 35.2 µg/mL (≈ 116 µM). The value for `O=c1[nH]cnc2ncc(-c3ccc(O)cc3)nc12` was greater than 36 µg/mL; that for `CCN(CC)c1ccc2c(C)c(Cl)c(=O)oc2c1` was 6.3 µg/mL (≈ 23.7 µM). With `O=C(NCc1ccccc1)C1CCCN(c2cnccn2)C1` (configuration not stated), the solubility (kinetic) was greater than 44.5 µg/mL.

As to `CN(C(=O)c1ccc(Br)cc1)C1CCS(=O)(=O)C1` (configuration not stated), the solubility (kinetic) was greater than 49.8 µg/mL. Compound `CC(C)CN1C(=O)c2ccc(NC(=O)c3ccco3)cc2C1=O` gave a solubility (kinetic) of 4.2 µg/mL (≈ 13.4 µM).

With `O=C1OC(CCl)CN1Cc1ccc([N+](=O)[O-])cc1` (configuration not stated), the solubility (kinetic) is greater than 40.6 µg/mL. As for `COc1ccc(NC(=O)CN(C)C(=O)Cc2ccsc2)cc1`, the solubility (kinetic) amounted to 42 µg/mL (≈ 132 µM). `CCOc1ccc(N2CC(C(=O)Nc3ccc4c(c3)OCCO4)CC2=O)cc1` (configuration not stated) yielded a kinetic solubility greater than 57.4 µg/mL. In the case of `CCCn1c(=O)c2[nH]c(C3CCCC3)nc2n(CCC)c1=O`, the solubility (kinetic) was found to be 3.1 µg/mL (≈ 10.2 µM). `S=C(NCc1ccccc1)NCc1ccccn1`: the kinetic solubility was greater than 38.6 µg/mL. `Cc1c(Cl)cccc1NC(=O)C1C2C=CC(C2)C1C(=O)O` (configuration not stated) came in with a kinetic solubility greater than 45.9 µg/mL. In turn, `CN(C(=O)c1ccncc1)C1CCCCC1` gave a solubility (kinetic) greater than 32.7 µg/mL. For `O=C(c1ccc(Br)s1)N1CCc2ccccc2C1`, the kinetic solubility was found to be 19.8 µg/mL (≈ 61.4 µM).

`S=C(CN1CCCC1=S)NCCc1ccccc1`: the kinetic solubility is greater than 41.8 µg/mL. In turn, `CC1(C(=O)NCCOc2ccccc2Cl)CC1(Cl)Cl` (configuration not stated) had a kinetic solubility greater than 48.4 µg/mL. `Cc1cc(C(=O)NCc2csc(-c3ccccc3)n2)no1` came in with a kinetic solubility greater than 44.9 µg/mL. Take `O=C(CCSCc1ccc(Cl)cc1)NCc1ccco1`: the kinetic solubility stood at 39.5 µg/mL (≈ 127 µM). For the compound `Cc1ccc(NC(=O)C2CC(O)CN2C(=O)OCc2ccccc2)c(C)c1` (configuration not stated), the kinetic solubility was found to be 37.2 µg/mL (≈ 101 µM). This solubility kinetic and that of the compound before are within 1.5-fold of each other. In turn, `O=C(COC(=O)CC1CCCC1)Nc1cccc(F)c1` yielded a solubility (kinetic) greater than 41.9 µg/mL. Compound `COc1cccc(C(=O)OCC(=O)NC23CC4CC(CC(C4)C2)C3)c1` yielded a kinetic solubility of 19.8 µg/mL (≈ 57.7 µM). The same measure for `CC(C)c1ccc(CNc2ccc3c(c2)ncn3C)cc1`: 22 µg/mL (≈ 78.7 µM); for `COc1ccc(OCC(N)=O)cc1`: greater than 27.2 µg/mL.

For the compound `COC(=O)c1sccc1NS(=O)(=O)c1ccccc1`, the kinetic solubility amounted to 40.5 µg/mL (≈ 136 µM). Take `CCC(C)(C)c1ccc(OCC(=O)Nc2ccncc2)cc1`: the solubility (kinetic) came out at 2.6 µg/mL (≈ 8.71 µM). `NC(=O)c1ccsc1NC(=O)CSc1nnc2ccccn12` yielded a solubility (kinetic) greater than 50 µg/mL. In turn, `CCOC(=O)Cc1cnc(N)s1` yielded a solubility (kinetic) of 27.6 µg/mL (≈ 148 µM). On to `COc1ccc(CN2C(=O)c3ccccc3C2OC)cc1` (configuration not stated), for which the kinetic solubility is greater than 42.5 µg/mL. Compound `CC1CCN(CC(=O)Nc2cccc(Cl)c2)CC1` registered a kinetic solubility of 39.7 µg/mL (≈ 149 µM).

Regarding `Clc1ccc(C2=CSC3=NCCN23)c(Cl)c1.[Br-]`, the solubility (kinetic) was greater than 52.7 µg/mL.

`Cc1ccccc1OCCC(=O)OCC(=O)NC1CC1`: the kinetic solubility was greater than 41.6 µg/mL. The compound `N#C/C(=C\c1ccccc1[N+](=O)[O-])C(=O)NCc1ccccc1` gave a kinetic solubility greater than 46.1 µg/mL. In turn, `COc1ccccc1CNC(=O)COC(=O)c1cc(C)nc2ccccc12` gave a kinetic solubility of 14.6 µg/mL (≈ 40.1 µM).

Compound `COc1cc(/C=C/C(=O)O)cc(S(=O)(=O)Nc2ccccc2C(=O)NCc2ccco2)c1OC` had a kinetic solubility greater than 73 µg/mL. The same measure for `Cc1ccccc1Oc1nc(-c2ccccn2)nc2ccccc12`: 35 µg/mL (≈ 112 µM); for `Cc1sc2ncnc(SCC(=O)Nc3ccc(S(=O)(=O)N4CCOCC4)cc3)c2c1C`: 5.4 µg/mL (≈ 11.3 µM). The value for `Cc1cccc(NC(=O)CN(C)C(=O)c2ccc(N3CCCCCC3)c([N+](=O)[O-])c2)c1C` was 11.4 µg/mL (≈ 26 µM); that for `CCOC(=O)c1ccc(S(=O)(=O)N2CCN(C(C)=O)CC2)cc1` was greater than 51.1 µg/mL.

As to `O=C(CSc1nc2ncccc2[nH]1)NC1CCCCC1`, the kinetic solubility was greater than 43.6 µg/mL. `O=S(=O)(Nc1cccc2ccccc12)c1ccccc1`: the kinetic solubility worked out at 8.6 µg/mL (≈ 30.4 µM). `O=C(NCCNC1CCC(c2ccccc2)CC1)c1ccc(F)cc1` (configuration not stated): the solubility (kinetic) is 35.4 µg/mL (≈ 104 µM). The compound `CC(=O)Nc1ccc(NC(=O)CC(C)n2ccnc2)cc1` (configuration not stated) gave a solubility (kinetic) of 40.8 µg/mL (≈ 142 µM). The solubility kinetic values of the last two compounds are within 1.5-fold of each other.

As a reminder, the kinetic solubility is solubility judged after dilution from a stock solution rather than from solid.
